Broadly, the IC50 is the concentration needed to halve the response being measured.

The results in this text go back to patent US20260125346A1, “Isoquinolinone Derivatives and 4H-Quinolizinone Derivatives and Pharmaceutical Compositions Thereof for the Treatment of Disease” (BeOne Medicines I GmbH, priority 2023, published 2026).

One assay has as its system WT cell line SK-BR-3. Kind of assay: Phospho-AKT (Ser473) Inhibition Assay (HTRF), SK-BR-3. The format is cell-based. The conditions noted are these: Homo sapiens; SK-BR-3, 1 hour treatment; read-out: p-AKT Inhibition assay (S473) IC50 SK-BR-3. As for the experimental part:
The SK-BR-3 (ATCC, HTB-30) cell line was obtained from the American Type Culture Collection. Cells were maintained in McCoy' 5A medium (Gibco, REF #16600108) supplemented with 10% Fetal Bovine Serum. Cultures were maintained in a humidified incubator at 37° C. under 5% CO2/95% air.
(§1) Phospho-AKT Inhibition Assay. HTRF Phospho-AKT (Ser473) detection kit (Cisbio, REF #64AKSPEH) was used in phosphor-AKT inhibition assay. For compound screening, PI3Kα H1047R mutated cell line T-47D and WT cell line SK-BR-3 cells were seeded at a density of 3×10^4 cells per well in 96 well plate (Costar, REF #3599) in 95 μL of assay medium (MEM medium (Gibco, REF #12561-056) with 1×NEAA (Gibco, REF #11140-050), 1 mM sodium pyruvate (Gibco, REF #11360-070), and 1 g/ml human insulin (Topscience, REF #T8221)), overnight. Compounds dissolved in 10 mM stock solutions in DMSO were serially diluted 1:3 in DMSO to generate an 11-point dilution series and plated using an INTEGRA ASSIST PLUS pipetting robot. A 20× intermediate compound dilution plate in RPMI1640 medium (200 M starting compound concentration in 2% DMSO) was then prepared. Five μL of intermediate serially diluted compounds were added to the cell plate to final concentrations ranging from […] to 0.1 nM in 0.1% DMSO. 0.1% DMSO alone was used to establish the maximum signal and GDC0077 at final concentration of 10 μM was used as a reference compound for minimum signal. After 1 hour treatment, removed medium and added 50 μL of supplemented lysis buffer (1×) immediately. Incubated for at least 30 minutes at room temperature under shaking. Transferred 16 μL of cell lysate from the 96-well cell-culture plate to a 384-white detection plate (PerkinElmer, Optiplate 384, 6007299). Added 4 μL of premixed antibody solutions prepared in the detection buffer. Incubated 4 hours at room temperature in dark. The plates were read on PHERAstar FSX Microplate reader (BMG LABTECH, Inc.) using standard HTRF settings.
(§2) Relative IC50 values were determined using luminescence units by calculating percent inhibition with respect to the in-plate “MIN” (GDC0077 reference control) and “MAX” (DMSO) controls. The data were analyzed using a 4-parameter nonlinear logistic equation (four-parameter logistic concentration-response curve): Y=bottom+[(top−bottom)/1+(X/IC50) slope] • where Y=% inhibition, X=concentration of inhibitor, bottom=minimum value of y attained by curve-fit, top=maximum value of y attained by curve-fit and slope=steepness of curve at the IC50.
For orientation: Time-resolved FRET reads energy transfer from a long-lived donor to a nearby acceptor.

The test system of assay [1] is PI3Kα H1047R mutated cell line T-47D. Kind of assay: Phospho-AKT (Ser473) Inhibition Assay (HTRF), T-47D. Type of assay: cell-based. The conditions noted are these: for IC50: Homo sapiens, T47D, T-47D, 1 hour treatment, read-out: p-AKT Inhibition assay (S473) IC50 T-47D; for Selectivity: SK-BR-3/T-47D (p-AKT): p-AKT (S473) IC50 ratio. As for the experimental part:
Cell Culture Maintenance. The T-47D (ATCC, HTB-133) cell line was obtained from the American Type Culture Collection. Cells were maintained in RPMI1640 medium (Gibco, REF #22400105) supplemented with 10% Fetal Bovine Serum (Gibco, REF #10091148). Cultures were maintained in a humidified incubator at 37° C. under 5% CO2/95% air.
as §1, §2

The target of assay [2] is PI3Kα (p110/p85) kinase (wild type, "WT") (Homo sapiens, UniProt P42336). Kind of assay: PI3Kα (p110/p85) kinase ADP-Glo Assay. Type of assay: biochemical. The conditions noted are these: 25 uM ATP. As for the experimental part: PI3Kα (p110/p85) kinase ADP-Glo Assay. Certain compounds disclosed herein were tested for inhibition of PI3Kα (p110/p85) kinase (wild type, “WT”) in assays based on the ADP-Glo™ Kinase Assay methodology. The assays were carried out in 384-well white plates in a reaction mixture containing PI3Kα (p110/p85) kinase, 25 µM ATP, 5.35 µg/mL PI(4,5)P2:PS Lipid Kinase Substrate and […] compound in buffer containing 50 mM HEPES pH7.5, 50 mM NaCl, 3 mM MgCl2, 0.0025% BSA and 2 mM DTT. PI3Kα (p110/p85) kinase was incubated with Lipid Kinase Substrate and compound for 30 minutes at room temperature and the reaction was initiated by the addition of ATP. After reaction at room temperature for 120 minutes, ADP-Glo™ reagents were added to terminate the kinase reaction and deplete the remaining ATP according to the manufacture's instruction (Promega Corporation). After incubation at room temperature for 1 hour, Kinase Detection Reagent (prepared by reconstituting the lyophilized Kinase Detection Substrate with Kinase Detection Buffer of the kit) was added to convert the ADP to ATP and to allow for the newly synthesized ATP to be measured using a luciferase/luciferin reaction. After incubation at room temperature for 0.5 hour, chemiluminescence signals were recorded on a PHERAstar FSX plate reader (BMG Labtech). The chemiluminescence generated in this assay correlates to the amount of ADP generated in the kinase assay, indicating kinase activity. […] The IC50 for each compound was derived from fitting the data to the four-parameter logistic equation by Dotmatics.
PI3Kα (p110/p85) kinase (wild type, "WT"), sequence (P42336 whole entry): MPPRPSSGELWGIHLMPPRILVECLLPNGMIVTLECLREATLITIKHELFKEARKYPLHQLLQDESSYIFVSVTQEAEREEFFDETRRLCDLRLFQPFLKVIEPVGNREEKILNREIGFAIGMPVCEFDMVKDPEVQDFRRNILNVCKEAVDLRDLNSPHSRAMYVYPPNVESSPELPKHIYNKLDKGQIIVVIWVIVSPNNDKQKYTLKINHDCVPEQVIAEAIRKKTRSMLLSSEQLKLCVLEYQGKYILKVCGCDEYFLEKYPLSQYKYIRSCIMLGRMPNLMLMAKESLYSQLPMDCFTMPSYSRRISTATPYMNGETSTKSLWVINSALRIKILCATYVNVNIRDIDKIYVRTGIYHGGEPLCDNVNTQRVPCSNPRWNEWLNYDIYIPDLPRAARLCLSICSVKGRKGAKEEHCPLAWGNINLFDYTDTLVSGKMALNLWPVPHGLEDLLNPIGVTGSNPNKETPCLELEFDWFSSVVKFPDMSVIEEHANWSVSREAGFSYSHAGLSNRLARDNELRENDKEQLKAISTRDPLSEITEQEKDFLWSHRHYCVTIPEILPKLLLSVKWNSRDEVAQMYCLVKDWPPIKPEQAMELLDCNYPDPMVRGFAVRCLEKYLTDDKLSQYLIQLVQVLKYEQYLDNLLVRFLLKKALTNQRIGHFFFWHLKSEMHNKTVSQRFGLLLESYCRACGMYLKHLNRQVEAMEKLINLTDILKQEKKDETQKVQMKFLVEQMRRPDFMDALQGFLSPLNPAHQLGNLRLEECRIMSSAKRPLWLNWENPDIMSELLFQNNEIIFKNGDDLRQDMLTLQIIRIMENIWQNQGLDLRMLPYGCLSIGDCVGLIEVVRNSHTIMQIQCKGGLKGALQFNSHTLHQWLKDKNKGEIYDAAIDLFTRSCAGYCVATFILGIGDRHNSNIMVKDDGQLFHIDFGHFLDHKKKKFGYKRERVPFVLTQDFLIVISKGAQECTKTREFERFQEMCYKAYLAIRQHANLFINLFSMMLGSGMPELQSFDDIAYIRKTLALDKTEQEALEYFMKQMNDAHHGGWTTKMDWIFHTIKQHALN
PI3Kα (p110/p85) kinase (wild type, "WT"), sequence (P27986 whole entry partner): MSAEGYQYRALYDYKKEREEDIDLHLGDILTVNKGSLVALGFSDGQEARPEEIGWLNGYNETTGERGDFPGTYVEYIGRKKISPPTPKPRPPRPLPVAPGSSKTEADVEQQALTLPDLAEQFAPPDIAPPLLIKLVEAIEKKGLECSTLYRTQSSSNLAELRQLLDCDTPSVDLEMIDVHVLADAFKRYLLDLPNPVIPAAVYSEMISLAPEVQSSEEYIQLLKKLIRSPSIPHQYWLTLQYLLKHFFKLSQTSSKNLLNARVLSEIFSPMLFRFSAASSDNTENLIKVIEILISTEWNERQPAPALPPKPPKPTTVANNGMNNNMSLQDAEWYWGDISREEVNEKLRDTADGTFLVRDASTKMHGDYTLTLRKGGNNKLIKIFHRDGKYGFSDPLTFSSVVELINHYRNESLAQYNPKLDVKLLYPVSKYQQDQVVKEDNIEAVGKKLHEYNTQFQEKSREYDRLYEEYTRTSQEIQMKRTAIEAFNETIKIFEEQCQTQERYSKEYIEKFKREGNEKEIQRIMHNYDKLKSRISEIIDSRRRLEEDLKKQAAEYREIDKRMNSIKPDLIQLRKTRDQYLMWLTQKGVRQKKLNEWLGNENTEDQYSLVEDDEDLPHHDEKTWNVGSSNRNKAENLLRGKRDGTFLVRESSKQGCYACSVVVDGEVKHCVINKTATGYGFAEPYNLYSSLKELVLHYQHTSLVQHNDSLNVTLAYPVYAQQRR
Background: ADP-Glo first removes unused ATP, then detects ADP through luciferase.

The target in assay [3] is PI3Kα (p110[H1047R]/p85) kinase (Homo sapiens, UniProt P42336, H1047R). Kind of assay: PI3Kα (p110[H1047R]/p85) kinase ADP-Glo Assay. The format is biochemical. The conditions noted are these: 25 uM ATP; for selectivity: WT/H1047R: ADP-Glo Assay IC50 ratio. As for the experimental part: PI3Kα (p110[H1047R]/p85) kinase ADP-Glo Assay. Certain compounds disclosed herein were tested for inhibition of PI3Kα (p110[H1047R]/p85) kinase in assays based on the ADP-Glo™ Kinase Assay methodology. The assays were carried out in 384-well white plates in a reaction mixture containing PI3Kα (p110[H1047R]/p85) kinase, 25 µM ATP, 5.35 µg/ml PI(4,5)P2:PS Lipid Kinase Substrate and […] compound in buffer containing 50 mM HEPES pH7.5, 50 mM NaCl, 3 mM MgCl2, 0.0025% BSA and 2 mM DTT. PI3Kα (p110[H1047R]/p85) kinase was incubated with Lipid Kinase Substrate and compound for 30 minutes at room temperature and the reaction was initiated by the addition of ATP.
PI3Kα (p110[H1047R]/p85) kinase, sequence (P42336 whole entry H1047R): as the sequence (P42336 whole entry) above, with H1047R counted along it
PI3Kα (p110[H1047R]/p85) kinase, sequence (P27986 whole entry partner): as the sequence (P27986 whole entry partner) above
After reaction at room temperature for 120 minutes, ADP-Glo™ reagents were added to terminate the kinase reaction and deplete the remaining ATP according to the manufacture's instruction (Promega Corporation). After incubation at room temperature for 1 hour, Kinase Detection Reagent (prepared by reconstituting the lyophilized Kinase Detection Substrate with Kinase Detection Buffer of the kit) was added to convert the ADP to ATP and to allow for the newly synthesized ATP to be measured using a luciferase/luciferin reaction. After incubation at room temperature for 0.5 hour, chemiluminescence signals were recorded on a PHERAstar FSX plate reader (BMG Labtech). The chemiluminescence generated in this assay correlates to the amount of ADP generated in the kinase assay, indicating kinase activity. […] The IC50 for each compound was derived from fitting the data to the four-parameter logistic equation by Dotmatics.

Take `Cc1cc(C(C)Nc2ccccc2C(=O)O)c2cc(C#CC3CCCCC3)n(C)c(=O)c2c1` (stereo not shown) [Example 28, 2-((1-(3-(cyclohexylethynyl)-2,7-dimethyl-1-oxo-1,2-dihydroisoquinolin-5-yl)ethyl)amino)benzoic acid]: the concentration for half-maximal inhibition (IC50) with WT cell line SK-BR-3 is 6.43 µM; in assay [1], 0.472 µM; in assay [2] it was greater than 100 µM; in assay [3], 0.505 µM. In addition, in assay [1], the “Selectivity: SK-BR-3/T-47D (p-AKT)” value was 17. Also, the “selectivity: WT/H1047R” value in assay [3] was greater than 198.

Consider `Cc1cc(C(C)Nc2ccccc2C(=O)O)c2cc(-c3cnn(-c4cccc(C#N)c4)c3)n(C)c(=O)c2c1` (stereo not shown) [Example 29, 2-((1-(3-(1-(3-cyanophenyl)-1H-pyrazol-4-yl)-2,7-dimethyl-1-oxo-1,2-dihydroisoquinolin-5-yl)ethyl)amino)benzoic acid], for which the IC50 was 2.7 µM in the assay on WT cell line SK-BR-3, 0.107 µM in assay [1], 3.8 µM in assay [2] and 0.26 µM in assay [3]. Moreover, the “Selectivity: SK-BR-3/T-47D (p-AKT)” value in assay [1] was 25. Further, the “selectivity: WT/H1047R” value in assay [3] amounted to 15.

In the case of `Cc1cc([C@H](C)Nc2ccccc2C(=O)O)c2cc(-c3ccc(-c4cnn(C)c4)cc3)n(C)c(=O)c2c1` [Example 41, (S)-2-((1-(2,7-dimethyl-3-(4-(1-methyl-1H-pyrazol-4-yl)phenyl)-1-oxo-1,2-dihydroisoquinolin-5-yl)ethyl)amino)benzoic acid], the IC50 in the assay with WT cell line SK-BR-3 was 3.23 µM; in assay [1] it was greater than 10 µM; in assay [2] it was 61 µM; in assay [3], 7.18 µM. Also, the “selectivity: WT/H1047R” value in assay [3] amounted to 8.5.

Turning to `Cc1cc(C(C)Nc2c(C(=O)O)nn3c2CCC3)c2cc(-c3ccccc3)n(C)c(=O)c2c1` (stereo not shown) [Example 83, 3-((1-(2,7-dimethyl-1-oxo-3-phenyl-1,2-dihydroisoquinolin-5-yl)ethyl)amino)-5,6-dihydro-4H-pyrrolo[1,2-b]pyrazole-2-carboxylic acid], the concentration for half-maximal inhibition (IC50) in the assay with WT cell line SK-BR-3 is greater than 10 µM; in assay [1], 6.75 µM; in assay [2], 55.5 µM; in assay [3] it was 0.485 µM. In addition, the “Selectivity: SK-BR-3/T-47D (p-AKT)” value in assay [1] is listed as greater than 1.48. For the same compound, the “selectivity: WT/H1047R” value in assay [3] is on record as 114.5.

Take `Cc1cc(C(C)Nc2ccccc2C(=O)O)c2cc(-c3cnc(O)nc3)n(C)c(=O)c2c1` (stereo not shown) [Example 85, 2-((1-(3-(2-hydroxypyrimidin-5-yl)-2,7-dimethyl-1-oxo-1,2-dihydroisoquinolin-5-yl)ethyl)amino)benzoic acid]: the half-maximal inhibitory concentration (IC50) was greater than 10 µM in the assay on WT cell line SK-BR-3, greater than 10 µM in assay [1], 26.8 µM in assay [2] and 1.1 µM in assay [3]. The “selectivity: WT/H1047R” value in assay [3] is 24.3.
